US10870647B2, “Imidazopyridine derivative, method for preparing same, and pharmaceutical composition containing same as active ingredient for preventing or treating cancer” (DAEGU-GYEONGBUK MEDICAL INNOVATION FOUNDATION, priority 2016, dated 2020)
Substitutions are numbered along the chain they refer to. Where two headings read alike, the source gives them in different places.

How the values were obtained:
Test in all cases: Kinase selectivity, scanMAX Kinase assay panel (DiscoverX), % control at 1 uM
Assay type in all cases: binding
[1] = molecular target: T1, scanMAX Kinase assay panel (Homo sapiens, UniProt P48736); settings: PIK3CG; 1 uM; read-out: Percent Control (%)
T1 construct: purchased DiscoverX
Procedure: (§1) The following experiment was performed to evaluate the inhibitory activity of the compound of the present invention on more enzymes.
(§2) Particularly, among the compounds of the present invention, the compounds of Example 1, Example 12 and Example 78 were selected and assigned to DiscoverX to measure the kinase selectivity. The experiment was performed by using scanMAX™ Kinase assay panel.
(§3) At this time, the concentration of the drug to be treated to the enzyme was adjusted to 1 uM in DMSO, and the control percentage (% control) was determined according to the following Equation 1. [Example Compound−Positive Control/Negative Control−Positive Control]×100 [Equation 1]
(§4) The enzyme selectivity of the compound of the present invention was judged to be active for the enzyme if the % control was <35 (i.e. less than 35%) for each enzyme.

[2] = molecular target: T2, scanMAX Kinase assay panel (Homo sapiens, UniProt Q92918); settings: HPK1; 1 uM; read-out: Percent Control (%)
T2 construct: purchased DiscoverX
Procedure: as §1, §2, §3, §4

[3] = molecular target: T3, scanMAX Kinase assay panel (Homo sapiens, UniProt P36888, K663Q); settings: FLT3 (K663Q); 1 uM; read-out: Percent Control (%)
T3 construct: purchased DiscoverX
T3 sequence (P36888 27-993 K663Q): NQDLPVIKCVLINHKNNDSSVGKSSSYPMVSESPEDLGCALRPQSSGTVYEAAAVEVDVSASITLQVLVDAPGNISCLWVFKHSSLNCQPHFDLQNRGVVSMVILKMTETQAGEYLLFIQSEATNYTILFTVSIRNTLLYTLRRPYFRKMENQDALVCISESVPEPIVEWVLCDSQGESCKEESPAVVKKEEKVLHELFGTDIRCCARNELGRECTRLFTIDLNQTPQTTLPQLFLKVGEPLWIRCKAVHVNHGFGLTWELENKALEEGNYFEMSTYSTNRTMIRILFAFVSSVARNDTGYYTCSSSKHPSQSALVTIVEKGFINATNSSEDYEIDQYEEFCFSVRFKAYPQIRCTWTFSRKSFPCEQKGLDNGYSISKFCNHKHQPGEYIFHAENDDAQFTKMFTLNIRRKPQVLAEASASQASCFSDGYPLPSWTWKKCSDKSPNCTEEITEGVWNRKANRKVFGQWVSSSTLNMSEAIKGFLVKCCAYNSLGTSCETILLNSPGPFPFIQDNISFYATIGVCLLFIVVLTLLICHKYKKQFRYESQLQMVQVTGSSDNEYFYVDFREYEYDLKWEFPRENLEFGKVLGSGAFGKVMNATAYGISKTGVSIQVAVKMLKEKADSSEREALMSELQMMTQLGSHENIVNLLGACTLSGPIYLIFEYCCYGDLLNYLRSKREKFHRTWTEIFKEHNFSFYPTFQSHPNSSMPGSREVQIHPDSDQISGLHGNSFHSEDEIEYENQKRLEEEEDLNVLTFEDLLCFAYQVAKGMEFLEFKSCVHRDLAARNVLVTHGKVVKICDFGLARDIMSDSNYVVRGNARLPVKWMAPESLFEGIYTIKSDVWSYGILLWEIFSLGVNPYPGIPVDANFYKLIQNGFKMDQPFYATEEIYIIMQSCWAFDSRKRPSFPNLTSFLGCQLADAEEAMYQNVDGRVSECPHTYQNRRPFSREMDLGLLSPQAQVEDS
Procedure: as §1, §2, §3, §4

[4] = molecular target: T4, scanMAX Kinase assay panel (Homo sapiens, UniProt P07949); settings: RET; 1 uM; read-out: Percent Control (%)
T4 construct: purchased DiscoverX
Procedure: as §1, §2, §3, §4

[5] = molecular target: T5, scanMAX Kinase assay panel (Homo sapiens, UniProt P36888); settings: 1 uM, read-out: Percent Control (%)
T5 construct: purchased DiscoverX
T5 sequence (P36888 27-993): T3 sequence (P36888 27-993 K663Q) with Q637K
Procedure: as §1, §2, §3, §4

[6] = molecular target: T6, scanMAX Kinase assay panel (Homo sapiens, UniProt P00519, Y253F); settings: ABL1 (Y253F)-phosphorylated; 1 uM; read-out: Percent Control (%)
T6 construct: purchased DiscoverX
Procedure: as §1, §2, §3, §4

[7] = molecular target: T7, scanMAX Kinase assay panel (Homo sapiens, UniProt Q02750); settings: MEK1; 1 uM; read-out: Percent Control (%)
T7 construct: purchased DiscoverX
Procedure: as §1, §2, §3, §4

[8] = molecular target: T8, scanMAX Kinase assay panel (Homo sapiens, UniProt P00533, G719S); settings: EGFR (G719S); 1 uM; read-out: Percent Control (%)
T8 construct: purchased DiscoverX
Procedure: as §1, §2, §3, §4

[9] = molecular target: T9, scanMAX Kinase assay panel (Homo sapiens, UniProt P49760); settings: CLK2; 1 uM; read-out: Percent Control (%)
T9 construct: purchased DiscoverX
Procedure: as §1, §2, §3, §4

T7 sequence (Q02750 whole entry): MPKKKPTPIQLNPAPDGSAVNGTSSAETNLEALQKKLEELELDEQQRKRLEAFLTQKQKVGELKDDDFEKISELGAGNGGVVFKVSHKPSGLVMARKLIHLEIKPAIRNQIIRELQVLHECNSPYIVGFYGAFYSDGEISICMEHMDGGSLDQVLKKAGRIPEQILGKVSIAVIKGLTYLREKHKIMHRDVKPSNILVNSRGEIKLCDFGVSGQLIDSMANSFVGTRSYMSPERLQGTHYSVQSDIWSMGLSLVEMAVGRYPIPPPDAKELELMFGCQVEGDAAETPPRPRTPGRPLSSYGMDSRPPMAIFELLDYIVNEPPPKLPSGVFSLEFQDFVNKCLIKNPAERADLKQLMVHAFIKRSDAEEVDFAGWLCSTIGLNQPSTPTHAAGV
T8 sequence (P00533 25-1210 G719S): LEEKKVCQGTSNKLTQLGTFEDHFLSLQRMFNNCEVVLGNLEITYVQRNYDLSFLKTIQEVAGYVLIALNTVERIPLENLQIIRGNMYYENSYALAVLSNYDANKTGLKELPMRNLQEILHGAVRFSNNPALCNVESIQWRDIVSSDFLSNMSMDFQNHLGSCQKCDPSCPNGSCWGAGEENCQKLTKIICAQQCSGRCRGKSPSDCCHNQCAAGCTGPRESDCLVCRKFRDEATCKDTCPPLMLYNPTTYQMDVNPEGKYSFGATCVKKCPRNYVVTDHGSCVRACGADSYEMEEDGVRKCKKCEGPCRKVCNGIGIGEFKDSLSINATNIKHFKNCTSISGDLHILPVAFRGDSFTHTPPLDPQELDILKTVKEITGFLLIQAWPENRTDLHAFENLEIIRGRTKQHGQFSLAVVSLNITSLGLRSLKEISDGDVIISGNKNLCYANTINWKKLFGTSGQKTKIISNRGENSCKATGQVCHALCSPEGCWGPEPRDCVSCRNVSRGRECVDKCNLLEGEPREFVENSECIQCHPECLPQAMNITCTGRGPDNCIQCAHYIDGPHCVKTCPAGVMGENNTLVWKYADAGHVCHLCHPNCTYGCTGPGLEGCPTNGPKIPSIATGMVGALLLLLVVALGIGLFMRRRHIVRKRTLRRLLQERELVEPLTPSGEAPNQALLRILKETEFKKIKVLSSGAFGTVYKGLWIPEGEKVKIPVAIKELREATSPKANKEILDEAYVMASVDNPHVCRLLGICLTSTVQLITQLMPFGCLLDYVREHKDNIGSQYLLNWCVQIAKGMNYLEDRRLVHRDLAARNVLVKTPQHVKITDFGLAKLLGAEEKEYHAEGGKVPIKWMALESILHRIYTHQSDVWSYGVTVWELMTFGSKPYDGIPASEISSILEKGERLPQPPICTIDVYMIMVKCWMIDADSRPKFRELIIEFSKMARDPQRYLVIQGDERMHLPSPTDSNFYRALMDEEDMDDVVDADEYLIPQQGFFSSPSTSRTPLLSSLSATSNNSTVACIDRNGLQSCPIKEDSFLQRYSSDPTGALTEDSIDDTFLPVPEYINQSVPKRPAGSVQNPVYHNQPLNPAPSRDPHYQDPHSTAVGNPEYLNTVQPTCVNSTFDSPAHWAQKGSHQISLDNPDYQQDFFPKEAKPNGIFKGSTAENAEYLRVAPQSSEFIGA
T1 sequence (P48736 whole entry): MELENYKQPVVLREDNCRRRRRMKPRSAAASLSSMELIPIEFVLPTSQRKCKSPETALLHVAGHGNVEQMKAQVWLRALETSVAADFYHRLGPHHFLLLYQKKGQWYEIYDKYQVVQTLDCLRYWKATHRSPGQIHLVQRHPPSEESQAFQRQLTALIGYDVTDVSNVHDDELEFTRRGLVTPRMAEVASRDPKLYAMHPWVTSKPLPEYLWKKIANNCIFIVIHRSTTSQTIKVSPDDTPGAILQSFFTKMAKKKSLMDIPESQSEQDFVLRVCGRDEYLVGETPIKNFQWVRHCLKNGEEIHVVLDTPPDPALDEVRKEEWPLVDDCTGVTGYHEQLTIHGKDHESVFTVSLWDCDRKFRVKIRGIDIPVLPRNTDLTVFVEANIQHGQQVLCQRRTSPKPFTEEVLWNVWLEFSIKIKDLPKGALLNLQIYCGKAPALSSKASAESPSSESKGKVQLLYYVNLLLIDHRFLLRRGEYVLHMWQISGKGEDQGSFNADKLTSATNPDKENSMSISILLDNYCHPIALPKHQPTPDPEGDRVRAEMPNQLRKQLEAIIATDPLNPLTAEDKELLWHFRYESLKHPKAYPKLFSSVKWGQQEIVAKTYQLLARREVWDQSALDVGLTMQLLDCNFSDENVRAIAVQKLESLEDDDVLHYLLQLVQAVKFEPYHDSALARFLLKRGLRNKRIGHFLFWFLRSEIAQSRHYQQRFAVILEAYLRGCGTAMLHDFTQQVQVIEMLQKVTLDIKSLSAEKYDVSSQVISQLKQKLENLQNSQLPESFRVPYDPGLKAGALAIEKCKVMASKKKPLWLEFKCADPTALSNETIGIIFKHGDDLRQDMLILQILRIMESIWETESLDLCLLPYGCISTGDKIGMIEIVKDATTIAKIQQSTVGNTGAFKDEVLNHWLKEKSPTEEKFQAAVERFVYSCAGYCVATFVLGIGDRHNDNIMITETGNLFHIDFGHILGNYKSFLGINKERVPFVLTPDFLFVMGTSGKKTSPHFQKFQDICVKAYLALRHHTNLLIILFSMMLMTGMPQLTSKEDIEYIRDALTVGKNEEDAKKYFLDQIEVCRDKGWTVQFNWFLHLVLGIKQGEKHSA
T9 sequence (P49760 whole entry): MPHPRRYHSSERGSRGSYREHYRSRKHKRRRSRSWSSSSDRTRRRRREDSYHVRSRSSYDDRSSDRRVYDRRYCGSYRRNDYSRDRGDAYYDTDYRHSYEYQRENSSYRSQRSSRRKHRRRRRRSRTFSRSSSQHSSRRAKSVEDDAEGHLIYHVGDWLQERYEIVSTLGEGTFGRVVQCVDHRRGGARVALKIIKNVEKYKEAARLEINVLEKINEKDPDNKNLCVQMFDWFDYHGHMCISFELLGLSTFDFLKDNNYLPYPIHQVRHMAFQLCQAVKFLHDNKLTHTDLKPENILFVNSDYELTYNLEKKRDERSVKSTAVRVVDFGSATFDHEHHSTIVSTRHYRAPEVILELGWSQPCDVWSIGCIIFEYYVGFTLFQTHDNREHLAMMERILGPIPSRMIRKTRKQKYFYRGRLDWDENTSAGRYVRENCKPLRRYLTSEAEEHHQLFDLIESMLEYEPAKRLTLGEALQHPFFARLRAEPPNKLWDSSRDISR
T4 sequence (P07949 29-1114): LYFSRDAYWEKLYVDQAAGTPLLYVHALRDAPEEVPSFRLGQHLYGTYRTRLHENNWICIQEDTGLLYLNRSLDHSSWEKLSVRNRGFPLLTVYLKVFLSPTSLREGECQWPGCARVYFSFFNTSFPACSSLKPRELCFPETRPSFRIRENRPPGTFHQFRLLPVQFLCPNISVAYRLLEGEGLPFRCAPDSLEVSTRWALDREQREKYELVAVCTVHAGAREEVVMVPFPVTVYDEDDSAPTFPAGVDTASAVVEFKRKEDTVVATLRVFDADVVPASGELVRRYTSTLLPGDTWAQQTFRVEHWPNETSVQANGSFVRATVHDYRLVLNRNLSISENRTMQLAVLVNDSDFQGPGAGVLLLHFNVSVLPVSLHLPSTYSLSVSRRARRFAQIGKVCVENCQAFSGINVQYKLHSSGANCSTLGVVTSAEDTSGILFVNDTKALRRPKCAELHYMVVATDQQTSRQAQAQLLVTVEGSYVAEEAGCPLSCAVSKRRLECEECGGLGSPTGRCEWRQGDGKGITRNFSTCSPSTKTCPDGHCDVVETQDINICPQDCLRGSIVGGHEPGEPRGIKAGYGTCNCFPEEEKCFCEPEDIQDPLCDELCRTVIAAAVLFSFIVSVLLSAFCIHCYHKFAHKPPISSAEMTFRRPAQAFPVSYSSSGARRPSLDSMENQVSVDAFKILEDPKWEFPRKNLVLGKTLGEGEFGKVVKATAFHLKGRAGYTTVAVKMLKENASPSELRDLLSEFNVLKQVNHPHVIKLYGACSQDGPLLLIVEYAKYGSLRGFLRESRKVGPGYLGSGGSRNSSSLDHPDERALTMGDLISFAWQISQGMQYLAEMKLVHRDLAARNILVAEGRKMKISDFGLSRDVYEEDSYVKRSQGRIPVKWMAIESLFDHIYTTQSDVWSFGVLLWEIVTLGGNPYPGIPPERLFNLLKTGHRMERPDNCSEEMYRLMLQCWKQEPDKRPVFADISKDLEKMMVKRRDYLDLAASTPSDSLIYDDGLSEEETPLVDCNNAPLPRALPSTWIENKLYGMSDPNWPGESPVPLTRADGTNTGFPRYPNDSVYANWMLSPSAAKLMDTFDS
T2 sequence (Q92918 whole entry): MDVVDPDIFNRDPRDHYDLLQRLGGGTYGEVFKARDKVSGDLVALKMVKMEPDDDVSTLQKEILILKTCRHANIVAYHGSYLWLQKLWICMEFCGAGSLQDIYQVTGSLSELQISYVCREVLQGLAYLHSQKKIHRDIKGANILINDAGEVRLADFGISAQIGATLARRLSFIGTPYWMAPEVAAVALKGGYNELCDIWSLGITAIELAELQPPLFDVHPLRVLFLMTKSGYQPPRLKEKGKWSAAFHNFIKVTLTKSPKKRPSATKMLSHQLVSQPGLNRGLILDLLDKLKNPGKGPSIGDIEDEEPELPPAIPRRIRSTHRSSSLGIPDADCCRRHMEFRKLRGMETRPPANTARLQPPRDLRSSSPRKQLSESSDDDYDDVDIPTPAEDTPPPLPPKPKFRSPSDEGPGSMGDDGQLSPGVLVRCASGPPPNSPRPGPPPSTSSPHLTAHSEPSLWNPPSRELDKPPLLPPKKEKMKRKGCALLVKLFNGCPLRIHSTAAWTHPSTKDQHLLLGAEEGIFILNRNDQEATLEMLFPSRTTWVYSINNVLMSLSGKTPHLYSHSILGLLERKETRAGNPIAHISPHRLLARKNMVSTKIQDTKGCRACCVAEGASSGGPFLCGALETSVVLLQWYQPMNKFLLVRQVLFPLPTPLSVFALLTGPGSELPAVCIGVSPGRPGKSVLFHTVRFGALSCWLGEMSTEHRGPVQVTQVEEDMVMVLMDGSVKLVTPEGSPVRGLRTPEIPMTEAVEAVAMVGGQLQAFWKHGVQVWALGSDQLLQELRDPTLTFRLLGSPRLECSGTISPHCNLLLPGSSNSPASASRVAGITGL

Row | SMILES | remaining binding at 1 µM [1] [%] | remaining binding at 1 µM [2] [%] | remaining binding at 1 µM [3] [%] | remaining binding at 1 µM [4] [%] | remaining binding at 1 µM ([5]; FLT3-autoinhibited) [%] | remaining binding at 1 µM ([5]; FLT3) [%] | remaining binding at 1 µM [6] [%] | remaining binding at 1 µM [7] [%] | remaining binding at 1 µM [8] [%] | remaining binding at 1 µM [9] [%]
1 | Cc1ccc(NC(=O)C2(C(=O)Nc3ccc(F)cc3)CC2)cc1C#Cc1cnc2c(Nc3cnn(C(C)C)c3)cccn12 [Example 78] | 100 | 78 | 74 | 97 | 100 | 42 | 88 | 100 | 100 | 100
2 | Cc1cn(-c2cc(NC(=O)c3ccc(C)c(C#Cc4cnc5c(Nc6cnn(C)c6)cccn45)c3)cc(C(F)(F)F)c2)cn1 [Example 12, 4-methyl-N-(3-(4-methyl-1H-imidazol-1-yl)-5-(trifluoromethyl)phenyl)-3-((8-((1-methyl-1H-pyrazol-4-yl)amino)imidazo[1,2-a]pyridin-3-yl)ethynyl)benzamide] | 100 | 5 | 1 | 1 | 100 | 4 | 10 | 100 | 20 | 91
3 | Cc1ccc(C(=O)Nc2ccc(CN3CCN(C)CC3)c(C(F)(F)F)c2)cc1C#Cc1cnc2c(Nc3cnn(C)c3)cccn12 [Example 1, 4-methyl-3-((8-((1-methyl-1H-pyrazol-4-yl)amino)imidazo[1,2-a]pyridin-3-yl)ethynyl)-N-(4-((4-methylpiperazin-1-yl)methyl)-3-(trifluoromethyl)phenyl)benzamide] | 100 | 1 | 2 | 0 | 46 | 1 | 0 | 100 | 1 | 64
